This assay deals with T1, CDK1 (Homo sapiens, UniProt P06493).
T1 construct: made in house; host or cells: T7 phage in E. coli BL21-derived host, or HEK-293 cells
Nature of the assay: Binding affinity to CDK1 (KdELECT assay). The method, then:
Exemplary compounds were tested for ability to bind to CDK1.
Compounds were tested using a KdELECT assay. Kinase-tagged T7 phage strains were prepared in an E. coli host derived from the BL21 strain. E. coli were grown to log-phase and infected with T7 phage and incubated with shaking at 32° C. until lysis. The lysates were centrifuged and filtered to remove cell debris. The remaining kinases were produced in HEK-293 cells and subsequently tagged with DNA for qPCR detection. Streptavidin-coated magnetic beads were treated with biotinylated small molecule ligands for 30 minutes at room temperature to generate affinity resins for kinase assays. The liganded beads were blocked with excess biotin and washed with blocking buffer (SeaBlock (Pierce), 1% BSA, 0.05% Tween 20, 1 mM DTT) to remove unbound ligand and to reduce non-specific binding. Binding reactions were assembled by combining kinases, liganded affinity beads, and test compounds in 1× binding buffer (20% SeaBlock, 0.17×PBS, 0.05% Tween 20, 6 mM DTT). Test compounds were prepared as 11 IX stocks in 100% DMSO. Kd values were determined using an 11-point 3-fold compound dilution series with three DMSO control points. All compounds for Kd measurements are distributed by acoustic transfer (non-contact dispensing) in 100% DMSO. […] The kinase concentration in the eluates was measured by qPCR.

By Kd is commonly meant the constant that tells how readily two partners part at equilibrium. A lower Kd goes with a tighter complex.

T1 sequence (P06493 whole entry): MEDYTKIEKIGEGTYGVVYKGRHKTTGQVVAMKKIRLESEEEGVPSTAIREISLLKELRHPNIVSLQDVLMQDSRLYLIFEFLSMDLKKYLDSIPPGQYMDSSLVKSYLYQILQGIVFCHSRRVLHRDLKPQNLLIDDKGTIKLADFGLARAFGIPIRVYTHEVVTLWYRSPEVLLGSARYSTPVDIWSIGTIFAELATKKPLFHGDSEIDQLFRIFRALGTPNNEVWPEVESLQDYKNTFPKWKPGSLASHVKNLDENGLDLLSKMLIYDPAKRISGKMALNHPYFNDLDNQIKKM

As for `CCN(CCOCCOCCNS(=O)(=O)c1ccc(Nc2ncc(Br)c(Nc3cccc(F)c3C(N)=O)n2)cc1)CCOc1ccc(C(=O)c2c(-c3ccc(O)cc3)sc3cc(O)ccc23)cc1` [I-40], the dissociation constant (Kd) lay within 50 to 500 nM.
The value for `CCN(CCOCCOCCOCCOCCOCCOCCNS(=O)(=O)c1ccc(Nc2ncc(Br)c(Nc3cccc(F)c3C(N)=O)n2)cc1)CCOc1ccc(C(=O)c2c(-c3ccc(O)cc3)sc3cc(O)ccc23)cc1` [I-42] was 50 to 500 nM.

For the origin of these results see US12558428B2, “Heterobifunctional compounds and their use in treating disease” (Halda Therapeutics OpCo, Inc., priority 2024, dated 2026).
